In patent US5968929A, “Piperazino derivatives as neurokinin antagonists” (Schering Corporation, priority 1997, dated 1999):

Legend:
[1] = target: T1, human neurokinin 1 (NK1) receptor (Homo sapiens, UniProt P25103); test: Neurokinin receptor binding assay, NK1 ([3H]-Substance P, CHO cell membranes); details: competition with [3H]-Substance P, Cheng and Prusoff
T1 construct: expressed in transfected cells; host or cells: Chinese hamster ovary (CHO) cells, membranes
Method: (§1) Neurokinin Receptor Binding Assay(s)
(§2) Chinese Hamster ovary (CHO) cells transfected with the coding regions for the human neurokinin 1 (NK1) of the human neurokinin 2 (NK2) receptors are grown in Dulbecco's minimal essential medium supplemented with 10% fetal calf serum, 0.1 mM non-essential amino acids, 2 mM glutamine, 100 units/ml of penicillin and streptomycin, and 0.8 mg of G418/ml at 37° C. in a humidified atmosphere containing 5% CO2.
(§3) Cells are detached from T-175 flasks with a sterile solution containing 5 mM EDTA in phosphate buffered saline. Cells are harvested by centrifugation and washed in RPMI media at […] for 5 minutes. The pellet is resuspended in Tris-HCl(pH7.4) containing 1 uM phosphoramidon and 4 ug/ml of chymostatin at a cell density of 30×10^6 cells/ml. The suspension is then homogenized in a Brinkman Polytron (setting 5) for 30-45 seconds. The homogenate is centrifuged at 800×g for 5 min at 4° C. to collect unbroken cells and nuclei. The supernatant is centrifuged in a Sorvall RC5C at 19,000 rpm ([…]) for 30 min at 4° C. The pellet is resuspended, an aliquot is removed for a protein determination (BCA) and washed again. The resulting pellet is stored at -80° C.
(§4) Binding is initiated by the addition of 100 μl of membrane (10-20 μg) containing the human NK-1 or NK-2 receptor in a final volume of 200 μl. After 40 minutes at room temperature, the reaction is stopped by rapid filtration onto Whatman GF/C filters which have been presoaked in 0.3% polyethylenimine. Filters are washed 2 times with 3 ml of 50 mM Tris-HCl (pH7.4). Filters are added to 6 mls of Ready-Safe liquid scintillation cocktail and quantified by liquid scintillation spectrometry in a LKB 1219 RackBeta counter. Non-specific binding is determined by the addition of either 1 μM of CP-99994 (NK1) or 1 μM SR-48968 (NK2) (both synthesized by the chemistry department of Schering-Plough Research Institute).

[2] = target: T2, human neurokinin 2 (NK2) receptor (Homo sapiens, UniProt P21452); test: Neurokinin receptor binding assay, NK2 ([3H]-Neurokinin A, CHO cell membranes); details: competition with [3H]-Neurokinin A, Cheng and Prusoff
T2 construct: expressed in transfected cells; host or cells: Chinese hamster ovary (CHO) cells, membranes
T2 sequence (P21452 1-398): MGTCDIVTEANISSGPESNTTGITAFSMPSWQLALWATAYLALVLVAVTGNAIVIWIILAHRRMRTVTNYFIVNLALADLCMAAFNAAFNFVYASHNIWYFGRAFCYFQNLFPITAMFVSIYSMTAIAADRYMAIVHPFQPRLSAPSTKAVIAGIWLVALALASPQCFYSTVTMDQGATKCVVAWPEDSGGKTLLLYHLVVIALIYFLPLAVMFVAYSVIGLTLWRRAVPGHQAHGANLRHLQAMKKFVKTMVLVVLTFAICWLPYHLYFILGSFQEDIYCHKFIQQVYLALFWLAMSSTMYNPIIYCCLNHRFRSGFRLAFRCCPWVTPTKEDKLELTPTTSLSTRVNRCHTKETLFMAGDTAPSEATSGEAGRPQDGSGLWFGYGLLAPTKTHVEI
Method: as §1, §2, §3, §4

T1 sequence (P25103 whole entry): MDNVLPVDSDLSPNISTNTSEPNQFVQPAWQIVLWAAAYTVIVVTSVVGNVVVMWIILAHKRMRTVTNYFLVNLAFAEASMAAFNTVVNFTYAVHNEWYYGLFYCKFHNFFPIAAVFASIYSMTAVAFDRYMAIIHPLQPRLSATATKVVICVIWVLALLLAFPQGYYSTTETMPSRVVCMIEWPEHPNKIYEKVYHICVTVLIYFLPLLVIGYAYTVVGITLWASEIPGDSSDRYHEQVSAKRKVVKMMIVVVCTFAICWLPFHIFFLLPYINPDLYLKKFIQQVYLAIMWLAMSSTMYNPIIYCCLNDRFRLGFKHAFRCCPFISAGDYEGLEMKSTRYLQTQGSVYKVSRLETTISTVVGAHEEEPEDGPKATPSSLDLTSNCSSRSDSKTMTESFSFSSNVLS

SMILES: Cc1cc(C)cc(C(=O)N2CCN(C(=O)CCN3C[C@@H]4C[C@H]3CN4C(=O)[C@H](Cc3ccccc3)NC(=O)OC(C)(C)C)[C@H](c3ccc(Cl)c(Cl)c3)C2)c1
- Ki [1]: 45 nM
- Ki [2]: 14 nM

SMILES: Cc1cc(C)cc(C(=O)N2CCN(C(=O)CCN3C[C@@H]4C[C@H]3CN4C(=O)[C@@H](N)Cc3cccs3)[C@H](c3ccc(Cl)c(Cl)c3)C2)c1
- Ki [1]: 16 nM
- Ki [2]: 0.35 nM

SMILES: CNC(=O)N[C@H](Cc1ccccc1)C(=O)N1C[C@@H]2C[C@H]1CN2CCC(=O)N1CCN(C(=O)c2cc(C)cc(C)c2)C[C@H]1c1ccc(Cl)c(Cl)c1 [35 (R = --CH3)]
- Ki [1]: 6.3 nM
- Ki [2]: 0.93 nM

SMILES: Cc1cc(C)cc(C(=O)N2CCN(C(=O)CCN3C[C@@H]4C[C@H]3CN4C(=NC#N)Nc3ccccc3)[C@H](c3ccc(Cl)c(Cl)c3)C2)c1 [Example 30]
- Ki [1]: 34 nM
- Ki [2]: 24 nM

SMILES: Cc1cc(C)cc(C(=O)N2CCN(C(=O)CO[C@@H]3C[C@@H]4C[C@H]3CN4Cc3ccsc3)[C@H](c3ccc(Cl)c(Cl)c3)C2)c1 [Example 50, 2(R)-(3,4-Dichlorophenyl)-4-(3,5-dimethylbenzoyl)-1-[[[exo-2-(3-thienylmethyl)-1(S),4(S)-2-azabicyclo[2.2.1]heptan-5-yl)oxy]acetyl]piperazine]
- Ki [1]: 1.8 nM
- Ki [2]: 2.6 nM

SMILES: CC(=O)Nc1ccc(CN2C[C@@H]3C[C@H]2C[C@H]3OCC(=O)N2CCN(C(=O)c3cc(C)cc(C)c3)C[C@H]2c2ccc(Cl)c(Cl)c2)cc1 [Example 51]
- Ki [1]: 1.5 nM
- Ki [2]: 4.4 nM

SMILES: Cc1cc(C)cc(C(=O)N2CCN(C(=O)CO[C@H]3C[C@H]4CC[C@@H](C3)N4C(=O)OC(C)(C)C)[C@H](c3ccc(Cl)c(Cl)c3)C2)c1 [Example 56, (Endo)-1,1-dimethylethyl 3-[2-[2(R)-(3,4-dichlorophenyl)-4-(3,5-dimethylbenzoyl)-1-piperazinyl]-2-oxoethoxy]-8-aza[3.2.1]octane-8-carboxylate]
- Ki [1]: > 100 nM
- Ki [2]: 55 nM

SMILES: CNC(=O)c1ccc(CN2[C@@H]3CC[C@H]2C[C@@H](OCC(=O)N2CCN(C(=O)c4cc(C)cc(C)c4)C[C@H]2c2ccc(Cl)c(Cl)c2)C3)cc1 [Example 58]
- Ki [1]: 19 nM
- Ki [2]: 57 nM

SMILES: Cc1cc(C)cc(C(=O)N2CCN(C(=O)CN[C@H]3C[C@H]4CC[C@@H](C3)N4C(=O)OC(C)(C)C)[C@H](c3ccc(Cl)c(Cl)c3)C2)c1 [Example 67]
- Ki [1]: 159 nM
- Ki [2]: 9.3 nM
